Assay results: US9233964B2, “Sulfamide piperazine derivatives as protein tyrosine kinase inhibitors and pharmaceutical use therof” (LEO PHARMA A/S, priority 2011, dated 2016)

Tests used:
Type in all cases: biochemical
JAK1 = molecular target: T1, JAK1 (Homo sapiens, UniProt P23458); assay: JAK kinase assay (HTRF, phosphorylation of synthetic peptide), JAK1; details: catalytic domain, ATP at Km (7 μM); read-out: JAK1 kinase inhibitory activity (EC50)
T1 construct: JAK1 (aa 850-1154) and TYK2 (aa 871-1187) are expressed with an N-terminally fused GST-tag; GST (N); purchased Carna Biosciences, Inc; host or cells: baculovirus expression system
Method: (§1) Human baculovirus-expressed JAK1, 2, 3 and TYK2 were purchased from Carna Biosciences, Inc. All four purified enzymes contain only the catalytic domain. JAK1 (aa 850-1154) and TYK2 (aa 871-1187) are expressed with an N-terminally fused GST-tag, and JAK2 and JAK3 with an N-terminally fused His-tag.
(§2) Inhibition of phosphorylation of a synthetic peptide was measured in an HTRF-based assay using the TK substrate-Biotin from the Cisbio HTRFKinEASE TK kit. First, 2 μl of TK solution (TK substrate-biotin in kinase buffer [1× enzymatic buffer from HTRFKinEASE TK kit, 1 mM DTT]) is added to a plate containing 1 μl prediluted compound (final assay concentration DMSO: 0.75%). Then, 5 μl kinase-ATP mix (prepared in kinase buffer) is added to the wells and the plates are incubated at RT for 20-30 min. For all four kinases a concentration of ATP that corresponded to the Km for ATP was used. The final concentrations of buffers, substrate, kinase and ATP were: JAK1: 50 mM Hepes buffer pH 7.0, 0.01% BSA, 10 mM MgCl2, 1 mM DTT, 7 μM ATP, 50 nM SEB, 1 μM TK Substrate-Biotin and 5 ng JAK1; JAK2: 50 mM Hepes buffer pH 7.0, 0.01% BSA, 5 mM MgCl2, 1 mM DTT, 4 μM ATP, 1 μM TK Substrate-Biotin and 0.1 ng JAK2; JAK3: 50 mM Hepes buffer pH 7.0, 0.01% BSA, 5 mM MgCl2, 1 mM DTT, 2 μM ATP, 1 μM TK Substrate-Biotin and 0.3 ng JAK3; TYK2: 50 mM Hepes buffer pH 7.0, 0.01% BSA, 5 mM MgCl2, 1 mM DTT, 13 μM ATP, 50 nM SEB, 1 μM TK Substrate-Biotin and 0.8 ng TYK2. Thereafter, the kinase reaction is stopped by adding 4 μl detection mix (final concentrations: 50 mM Hepes buffer pH 7.0, 0.01% BSA, 0.8 M KF, 20 mM EDTA, 42 nM Streptavidin-XL665 and 1:400 STK Ab Cryptate) and the plates are incubated overnight in the dark. The HTRF signal is read using an Envision plate reader.

TYK2 = molecular target: T2, TYK2 (Homo sapiens, UniProt P29597); assay: JAK kinase assay (HTRF, phosphorylation of synthetic peptide), TYK2; details: catalytic domain, ATP at Km (13 μM); read-out: TYK2 kinase inhibitory activity (EC50)
T2 construct: JAK1 (aa 850-1154) and TYK2 (aa 871-1187) are expressed with an N-terminally fused GST-tag; GST (N); purchased Carna Biosciences, Inc; host or cells: baculovirus expression system
T2 sequence (P29597 871-1187): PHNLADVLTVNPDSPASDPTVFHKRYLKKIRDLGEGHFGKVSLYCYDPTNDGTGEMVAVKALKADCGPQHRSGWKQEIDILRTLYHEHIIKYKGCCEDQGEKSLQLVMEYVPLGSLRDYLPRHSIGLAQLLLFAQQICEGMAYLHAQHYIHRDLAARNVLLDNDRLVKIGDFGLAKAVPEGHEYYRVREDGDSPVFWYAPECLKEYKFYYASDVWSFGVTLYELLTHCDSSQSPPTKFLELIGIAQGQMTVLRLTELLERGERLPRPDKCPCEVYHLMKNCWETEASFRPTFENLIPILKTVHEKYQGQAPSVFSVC
Method: as §1, §2

JAK3 = molecular target: T3, JAK3 (Homo sapiens, UniProt P52333); assay: JAK kinase assay (HTRF, phosphorylation of synthetic peptide), JAK3; details: catalytic domain, ATP at Km (2 μM); read-out: JAK3 kinase inhibitory activity (EC50)
T3 construct: All four purified enzymes contain only the catalytic domain; His (N); purchased Carna Biosciences, Inc; host or cells: baculovirus expression system
Method: as §1, §2

JAK2 = molecular target: T4, JAK2 (Homo sapiens, UniProt O60674); assay: JAK kinase assay (HTRF, phosphorylation of synthetic peptide), JAK2; details: catalytic domain, ATP at Km (4 μM); read-out: JAK2 kinase inhibitory activity (EC50)
T4 construct: All four purified enzymes contain only the catalytic domain; His (N); purchased Carna Biosciences, Inc; host or cells: baculovirus expression system
Method: as §1, §2

T3 sequence (P52333 822-1111 limits assumed): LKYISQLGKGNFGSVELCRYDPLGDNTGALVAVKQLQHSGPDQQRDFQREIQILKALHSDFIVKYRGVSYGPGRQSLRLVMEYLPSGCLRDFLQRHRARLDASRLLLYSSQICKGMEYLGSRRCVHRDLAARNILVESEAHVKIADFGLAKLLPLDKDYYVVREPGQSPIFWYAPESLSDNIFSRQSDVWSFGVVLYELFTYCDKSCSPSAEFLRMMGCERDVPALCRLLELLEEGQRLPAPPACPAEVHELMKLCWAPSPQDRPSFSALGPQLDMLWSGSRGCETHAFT
T4 sequence (O60674 849-1124 limits assumed): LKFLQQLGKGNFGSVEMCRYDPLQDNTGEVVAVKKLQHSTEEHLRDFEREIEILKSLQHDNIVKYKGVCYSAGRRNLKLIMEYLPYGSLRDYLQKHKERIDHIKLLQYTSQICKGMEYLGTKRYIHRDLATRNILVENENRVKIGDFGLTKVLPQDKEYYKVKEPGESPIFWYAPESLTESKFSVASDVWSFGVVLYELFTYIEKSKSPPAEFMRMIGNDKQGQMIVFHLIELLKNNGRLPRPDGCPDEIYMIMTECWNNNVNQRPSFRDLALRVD
T1 sequence (P23458 850-1154): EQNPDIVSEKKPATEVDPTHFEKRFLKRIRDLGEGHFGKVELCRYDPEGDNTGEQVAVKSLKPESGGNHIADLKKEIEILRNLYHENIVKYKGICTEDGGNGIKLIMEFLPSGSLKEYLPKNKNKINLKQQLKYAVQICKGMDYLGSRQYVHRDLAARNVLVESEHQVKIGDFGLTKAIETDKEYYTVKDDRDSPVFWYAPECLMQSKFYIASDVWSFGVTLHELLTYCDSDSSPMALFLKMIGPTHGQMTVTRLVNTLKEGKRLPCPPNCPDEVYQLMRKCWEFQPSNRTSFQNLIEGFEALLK

Row | Structure (SMILES) | EC50 (JAK1) [nM] | EC50 (TYK2) [nM] | EC50 (JAK3) [nM] | EC50 (JAK2) [nM]
1 | O=S(=O)(N1CCN(c2ncnc3[nH]ccc23)CC12CC2)n1ccnc1 [Int 15] | 100 to 500 | > 500 | > 500 | < 100
2 | COc1ccc(CCN(C)S(=O)(=O)N2CCN(c3ncnc4[nH]ccc34)CC23CC3)cc1OC [Example 51, 7-(7H-Pyrrolo[2,3-d]pyrimidin-4-yl)-4,7-diaza-spiro[2.5]octane-4-sulfonic acid [2-(3,4-dimethoxy-phenyl)-ethyl]-methyl-amide] | < 100 | 100 to 500 | < 100 | < 100
3 | O=S(=O)(N(CCc1ccccc1)CCc1ccccc1)N1CCN(c2ncnc3[nH]ccc23)CC12CC2 [Example 18, 7-(7H-Pyrrolo[2,3-d]pyrimidin-4-yl)-4,7-diaza-spiro[2.5]octane-4-sulfonic acid diphenethylamide] | 100 to 500 | > 500 | > 500 | 100 to 500
4 | CN(CC1CCCN(S(C)(=O)=O)C1)S(=O)(=O)N1CCN(c2ncnc3[nH]ccc23)CC12CC2 (stereo not shown) [Example 160, N-methyl-N-[(1-methylsulfonyl-3-piperidyl)methyl]-5-(7H-pyrrolo[2,3-d]pyrimidin-4-yl)-5,8-diazaspiro[2.5]octane-8-sulfonamide] | < 100 | 100 to 500 | < 100 | < 100
5 | CCCS(=O)(=O)N1CCC(CN(C)S(=O)(=O)N2CCN(c3ncnc4[nH]ccc34)CC23CC3)C1 (stereo not shown) [Example 118, N-methyl-N-[(1-propylsulfonylpyrrolidin-3-yl)methyl]-5-(7H-pyrrolo[2,3-d]pyrimidin-4-yl)-5,8-diazaspiro[2.5]octane-8-sulfonamide] | < 100 | 100 to 500 | < 100 | < 100
6 | Cc1cc(CN(C)S(=O)(=O)N2CCN(c3ncnc4[nH]ccc34)CC23CC3)on1 [Example 67, N-methyl-N-[(3-methylisoxazol-5-yl)methyl]-5-(7H-pyrrolo[2,3-d]pyrimidin-4-yl)-5,8-diazaspiro[2.5]octane-8-sulfonamide] | < 100 | 100 to 500 | < 100 | < 100
7 | CN(C[C@H]1CCCN1S(=O)(=O)CCCC#N)S(=O)(=O)N1CCN(c2ncnc3[nH]ccc23)CC12CC2 [Example 182, N-[[(2R)-1-(3-cyanopropylsulfonyl)pyrrolidin-2-yl]methyl]-N-methyl-5-(7H-pyrrolo[2,3-d]pyrimidin-4-yl)-5,8-diazaspiro[2.5]octane-8-sulfonamide] | < 100 | < 100 | < 100 | < 100
8 | CN(C1CN(C(=O)CO)C1)S(=O)(=O)N1CCN(c2ncnc3[nH]ccc23)CC12CC2 [Example 178, N-[1-(2-hydroxyacetyl)azetidin-3-yl]-N-methyl-5-(7H-pyrrolo[2,3-d]pyrimidin-4-yl)-5,8-diazaspiro[2.5]octane-8-sulfonamide] | < 100 | 100 to 500 | < 100 | < 100
9 | CN(Cc1ccc(S(C)(=O)=O)cc1)S(=O)(=O)N1CCN(c2ncnc3[nH]ccc23)CC12CC2 [Example 83, N-methyl-N-[(4-methylsulfonylphenyl)methyl]-5-(7H-pyrrolo[2,3-d]pyrimidin-4-yl)-5,8-diazaspiro[2.5]octane-8-sulfonamide] | < 100 | < 100 | < 100 | < 100
10 | N#CC1CCN(S(=O)(=O)N2CCN(c3ncnc4[nH]ccc34)CC23CC3)CC1 [Example 39, 1-[7-(7H-Pyrrolo[2,3-d]pyrimidin-4-yl)-4,7-diaza-spiro[2.5]octane-4-sulfonyl]-piperidine-4-carbonitrile] | < 100 | > 500 | 100 to 500 | < 100
11 | CN(CCOc1ccc(Cl)cc1)S(=O)(=O)N1CCN(c2ncnc3[nH]ccc23)CC12CC2 [Example 69, N-[2-(4-chlorophenoxy)ethyl]-N-methyl-5-(7H-pyrrolo[2,3-d]pyrimidin-4-yl)-5,8-diazaspiro[2.5]octane-8-sulfonamide] | < 100 | > 500 | 100 to 500 | < 100
12 | CN(CC1CC(=O)C1)S(=O)(=O)N1CCN(c2ncnc3[nH]ccc23)CC12CC2 [Example 88, N-methyl-N-[(3-oxocyclobutyl)methyl]-5-(7H-pyrrolo[2,3-d]pyrimidin-4-yl)-5,8-diazaspiro[2.5]octane-8-sulfonamide] | < 100 | 100 to 500 | 100 to 500 | < 100
13 | CN(CCc1ccc(F)cc1)S(=O)(=O)N1CCN(c2ncnc3[nH]ccc23)CC12CC2 [Example 16, 7-(7H-Pyrrolo[2,3-d]pyrimidin-4-yl)-4,7-diaza-spiro[2.5]octane-4-sulfonic acid [2-(4-fluoro-phenyl)-ethyl]-methyl-amide] | < 100 | 100 to 500 | < 100 | < 100
14 | CN(C(=O)C1CCCC1)S(=O)(=O)N1CCN(c2ncnc3[nH]ccc23)CC12CC2 [Example 132, N-methyl-N-[[5-(7H-pyrrolo[2,3-d]pyrimidin-4-yl)-5,8-diazaspiro[2.5]octan-8-yl]sulfonyl]cyclopentanecarboxamide] | < 100 | 100 to 500 | 100 to 500 | < 100
15 | CN(CCC1CCS(=O)(=O)C1)S(=O)(=O)N1CCN(c2ncnc3[nH]ccc23)CC12CC2 (stereo not shown) [Example 75, N-[2-(1,1-dioxothiolan-3-yl)ethyl]-N-methyl-5-(7H-pyrrolo[2,3-d]pyrimidin-4-yl)-5,8-diazaspiro[2.5]octane-8-sulfonamide] | < 100 | 100 to 500 | < 100 | < 100
16 | CN(C(=O)CCC1CCS(=O)(=O)C1)S(=O)(=O)N1CCN(c2ncnc3[nH]ccc23)CC12CC2 (stereo not shown) [Example 137, 3-(1,1-dioxothiolan-3-yl)-N-methyl-N-[[5-(7H-pyrrolo[2,3-d]pyrimidin-4-yl)-5,8-diazaspiro[2.5]octan-8-yl]sulfonyl]propanamide] | < 100 | > 500 | 100 to 500 | < 100
17 | O=S(=O)(N(CCc1ccccc1)CC1CC1)N1CCN(c2ncnc3[nH]ccc23)CC12CC2 [Example 2, 7-(7H-Pyrrolo[2,3-d]pyrimidin-4-yl)-4,7-diaza-spiro[2.5]octane-4-sulfonic acid cyclopropylmethyl-phenethyl-amide] | < 100 | > 500 | 100 to 500 | < 100
18 | CC(O)CC(=O)N1CCC(CN(C)S(=O)(=O)N2CCN(c3ncnc4[nH]ccc34)CC23CC3)C1 (stereo not shown) [Example 124, N-[[1-(3-hydroxybutanoyl)pyrrolidin-3-yl]methyl]-N-methyl-5-(7H-pyrrolo[2,3-d]pyrimidin-4-yl)-5,8-diazaspiro[2.5]octane-8-sulfonamide] | < 100 | > 500 | 100 to 500 | < 100
19 | CC(C#N)N(C1COC1)S(=O)(=O)N1CCN(c2ncnc3[nH]ccc23)CC12CC2 (stereo not shown) [Example 117, N-(1-cyanoethyl)-N-(oxetan-3-yl)-5-(7H-pyrrolo[2,3-d]pyrimidin-4-yl)-5,8-diazaspiro[2.5]octane-8-sulfonamide] | < 100 | 100 to 500 | < 100 | < 100
